According to ChEMBL document CHEMBL4334526, “Synthesis of Peptoid-Based Class I-Selective Histone Deacetylase Inhibitors with Chemosensitizing Properties” (J Med Chem, 2019):
pIC50: −log10 of the molar value.

What was measured:
[1] = biological target: T1, Class 1 histone deacetylase (Homo sapiens, UniProt Q13547+O15379+Q92769+Q9BY41); assay: Inhibition of class 1 HDAC in human Cal27CisR cells assessed as potentiation of cisplatin-induced cytotoxicity by measuring combination index at […] in presence of 10 uM cisplatin by MTT assay based Chou-Talalay analysis; assay type: cell-based
[2] = biological target: T1, Class 1 histone deacetylase; assay: Inhibition of class 1 HDAC in human Cal27CisR cells assessed as potentiation of cisplatin-induced cytotoxicity by measuring combination index at 1 uM in presence of […] cisplatin by MTT assay based Chou-Talalay analysis; assay type: cell-based
[3] = biological target: T2, Protein deacetylase HDAC6 (Homo sapiens, UniProt Q9UBN7); assay: Inhibition of human full length N-terminal GST-tagged HDAC6 expressed in baculovirus infected Sf9 insect cells ZMAL as substrate incubated for 90 mins by fluorescence assay; assay type: cell-based
T2 sequence (Q9UBN7 whole entry): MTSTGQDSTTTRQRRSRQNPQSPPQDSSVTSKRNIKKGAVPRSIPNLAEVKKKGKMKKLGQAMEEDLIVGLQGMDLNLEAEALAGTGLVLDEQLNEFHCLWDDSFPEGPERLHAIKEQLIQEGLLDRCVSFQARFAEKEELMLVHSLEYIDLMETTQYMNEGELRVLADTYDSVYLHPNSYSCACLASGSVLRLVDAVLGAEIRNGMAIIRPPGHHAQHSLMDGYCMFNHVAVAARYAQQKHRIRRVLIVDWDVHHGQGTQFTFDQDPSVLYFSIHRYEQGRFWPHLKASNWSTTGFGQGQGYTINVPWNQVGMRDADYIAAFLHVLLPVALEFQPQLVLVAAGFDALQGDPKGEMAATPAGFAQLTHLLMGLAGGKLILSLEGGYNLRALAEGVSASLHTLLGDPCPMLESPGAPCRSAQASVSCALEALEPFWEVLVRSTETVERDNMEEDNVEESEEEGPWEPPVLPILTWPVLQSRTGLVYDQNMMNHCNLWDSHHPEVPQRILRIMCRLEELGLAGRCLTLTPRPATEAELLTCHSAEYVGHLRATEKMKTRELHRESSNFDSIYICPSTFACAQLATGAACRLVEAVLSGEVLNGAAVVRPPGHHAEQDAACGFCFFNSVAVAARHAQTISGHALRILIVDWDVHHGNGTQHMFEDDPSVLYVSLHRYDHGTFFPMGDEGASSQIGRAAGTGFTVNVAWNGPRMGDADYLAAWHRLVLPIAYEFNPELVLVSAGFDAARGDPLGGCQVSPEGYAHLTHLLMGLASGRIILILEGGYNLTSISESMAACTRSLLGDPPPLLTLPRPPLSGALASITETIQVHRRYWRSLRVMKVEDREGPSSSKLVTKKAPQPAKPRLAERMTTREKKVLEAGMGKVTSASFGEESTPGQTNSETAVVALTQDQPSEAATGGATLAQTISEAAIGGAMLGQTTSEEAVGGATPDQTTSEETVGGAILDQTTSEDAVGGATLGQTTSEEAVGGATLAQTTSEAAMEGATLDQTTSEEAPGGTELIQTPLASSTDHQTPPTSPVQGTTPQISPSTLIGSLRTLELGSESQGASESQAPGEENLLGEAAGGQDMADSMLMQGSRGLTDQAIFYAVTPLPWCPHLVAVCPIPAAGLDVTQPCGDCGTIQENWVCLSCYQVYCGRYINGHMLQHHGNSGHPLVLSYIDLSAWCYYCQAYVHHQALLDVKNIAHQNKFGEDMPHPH

CAL-27 = assay: Cytotoxicity against human CAL27 cells assessed as reduction in cell survival measured after 72 hrs by MTT assay; assay type: functional, cell-based; conditions: CAL-27, 72 h
Histone deacetylase 4 = Histone deacetylase 4 (Homo sapiens, UniProt P56524); assay: Inhibition of recombinant human N-terminal GST-fused and C-terminal His-tagged HDAC4 (627 to 1084 residues) expressed in baculovirus infected insect cells using Boc-Lys(TFa)-AMC as substrate preincubated for 5 mins followed by substrate addition and measured after 90 mins by fluorescence assay
Chain of Histone deacetylase 4 (P56524 whole entry, the tested form may be a part): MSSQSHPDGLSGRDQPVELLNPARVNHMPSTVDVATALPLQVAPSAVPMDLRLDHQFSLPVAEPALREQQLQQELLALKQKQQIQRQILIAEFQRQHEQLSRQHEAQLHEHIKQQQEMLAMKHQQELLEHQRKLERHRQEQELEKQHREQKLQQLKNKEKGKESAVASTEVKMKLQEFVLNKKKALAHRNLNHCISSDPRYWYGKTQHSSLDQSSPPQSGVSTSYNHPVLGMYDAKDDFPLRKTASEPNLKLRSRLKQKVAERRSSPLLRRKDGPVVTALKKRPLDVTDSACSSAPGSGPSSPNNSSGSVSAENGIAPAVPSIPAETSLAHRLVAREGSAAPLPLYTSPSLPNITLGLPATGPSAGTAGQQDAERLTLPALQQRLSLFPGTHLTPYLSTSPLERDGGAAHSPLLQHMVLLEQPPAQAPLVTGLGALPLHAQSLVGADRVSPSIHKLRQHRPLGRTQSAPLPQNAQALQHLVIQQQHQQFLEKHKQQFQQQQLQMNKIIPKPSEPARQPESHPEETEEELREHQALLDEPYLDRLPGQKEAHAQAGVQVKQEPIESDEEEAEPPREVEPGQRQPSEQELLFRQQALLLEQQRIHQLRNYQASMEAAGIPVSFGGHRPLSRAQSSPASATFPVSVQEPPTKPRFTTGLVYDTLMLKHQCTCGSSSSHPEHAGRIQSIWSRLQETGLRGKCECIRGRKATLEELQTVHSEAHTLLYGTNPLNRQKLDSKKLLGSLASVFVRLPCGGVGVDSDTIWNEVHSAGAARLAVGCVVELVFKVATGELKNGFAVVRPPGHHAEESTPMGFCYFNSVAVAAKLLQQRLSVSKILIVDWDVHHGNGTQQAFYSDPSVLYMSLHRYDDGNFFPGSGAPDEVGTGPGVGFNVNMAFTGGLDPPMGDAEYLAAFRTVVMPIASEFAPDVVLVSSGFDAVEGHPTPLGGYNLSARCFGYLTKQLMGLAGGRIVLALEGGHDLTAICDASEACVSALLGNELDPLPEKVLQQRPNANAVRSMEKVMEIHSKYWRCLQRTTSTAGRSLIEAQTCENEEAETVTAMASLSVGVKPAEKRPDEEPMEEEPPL

Histone deacetylase [4] = assay: Inhibition of HDAC in human CAL27 cells using Boc-Lys(epsilon-Ac)-AMC as substrate preincubated for 18 hrs followed by substrate addition and measured after 3 hrs by fluorescence assay; assay type: cell-based
Histone deacetylase 8 = biological target: T3, Histone deacetylase 8 (Homo sapiens, UniProt Q9BY41); assay: Inhibition of recombinant human C-terminal His-fusion tagged/N-terminal Strep-2 tagged HDAC8 (1 to 377 residues) expressed in insect cells using Boc-Lys(TFa)-AMC as substrate preincubated for 5 mins followed by substrate addition measured after 90 mins by fluorescence assay
T3 sequence (Q9BY41 whole entry): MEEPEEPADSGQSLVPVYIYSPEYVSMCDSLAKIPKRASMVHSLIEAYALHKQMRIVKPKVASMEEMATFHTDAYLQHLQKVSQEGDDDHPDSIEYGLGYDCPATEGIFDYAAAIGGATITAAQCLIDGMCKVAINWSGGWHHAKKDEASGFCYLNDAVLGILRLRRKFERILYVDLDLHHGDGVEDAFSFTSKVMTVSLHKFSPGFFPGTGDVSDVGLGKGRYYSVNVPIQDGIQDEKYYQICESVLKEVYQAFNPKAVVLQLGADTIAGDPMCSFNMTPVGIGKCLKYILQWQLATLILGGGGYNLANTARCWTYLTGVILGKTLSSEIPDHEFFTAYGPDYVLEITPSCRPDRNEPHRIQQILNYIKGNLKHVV

[5] = biological target: T1, Class 1 histone deacetylase; assay: Inhibition of class 1 HDAC in human CAL27 cells assessed as potentiation of cisplatin-induced cytotoxicity by measuring combination index at […] in presence of 1 uM cisplatin by MTT assay based Chou-Talalay analysis; assay type: cell-based; conditions: CAL-27
Histone deacetylase [6] = assay: Inhibition of HDAC in human A2780 cells using Boc-Lys(epsilon-Ac)-AMC as substrate preincubated for 18 hrs followed by substrate addition and measured after 3 hrs by fluorescence assay; assay type: cell-based
Histone deacetylase 1 = Histone deacetylase 1 (Homo sapiens, UniProt Q13547); assay: Inhibition of recombinant human full length C-terminal His/FLAG-tagged HDAC1 expressed in baculovirus infected Sf9 insect cells using ZMAL as substrate incubated for 90 mins by fluorescence assay
Chain of Histone deacetylase 1 (Q13547 whole entry): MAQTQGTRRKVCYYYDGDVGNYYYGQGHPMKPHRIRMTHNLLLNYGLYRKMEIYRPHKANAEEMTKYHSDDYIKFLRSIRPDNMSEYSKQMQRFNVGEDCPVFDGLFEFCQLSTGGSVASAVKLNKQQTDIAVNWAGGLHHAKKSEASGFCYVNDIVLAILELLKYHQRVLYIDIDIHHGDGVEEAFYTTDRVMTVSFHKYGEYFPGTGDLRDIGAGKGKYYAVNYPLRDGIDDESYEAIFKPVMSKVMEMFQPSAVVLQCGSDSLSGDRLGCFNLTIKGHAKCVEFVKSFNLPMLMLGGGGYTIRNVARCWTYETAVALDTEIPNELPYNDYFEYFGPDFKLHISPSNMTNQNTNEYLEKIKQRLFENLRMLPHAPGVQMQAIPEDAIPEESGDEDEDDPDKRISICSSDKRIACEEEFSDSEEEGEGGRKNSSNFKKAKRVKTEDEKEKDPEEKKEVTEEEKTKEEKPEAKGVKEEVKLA

[7] = biological target: T1, Class 1 histone deacetylase; assay: Inhibition of class 1 HDAC in human CAL27 cells assessed as potentiation of cisplatin-induced cytotoxicity by measuring combination index at 1 uM in presence of 1 uM cisplatin by MTT assay based Chou-Talalay analysis; assay type: cell-based; conditions: CAL-27
[8] = biological target: T1, Class 1 histone deacetylase
[9] = biological target: Histone deacetylase 3/Nuclear receptor corepressor 2 (HDAC3/NCoR2) (Homo sapiens, UniProt O15379); assay: biochemical; assay type: cell-based, Sf9
Chain of Histone deacetylase 3/Nuclear receptor corepressor 2 (HDAC3/NCoR2) (O15379 whole entry): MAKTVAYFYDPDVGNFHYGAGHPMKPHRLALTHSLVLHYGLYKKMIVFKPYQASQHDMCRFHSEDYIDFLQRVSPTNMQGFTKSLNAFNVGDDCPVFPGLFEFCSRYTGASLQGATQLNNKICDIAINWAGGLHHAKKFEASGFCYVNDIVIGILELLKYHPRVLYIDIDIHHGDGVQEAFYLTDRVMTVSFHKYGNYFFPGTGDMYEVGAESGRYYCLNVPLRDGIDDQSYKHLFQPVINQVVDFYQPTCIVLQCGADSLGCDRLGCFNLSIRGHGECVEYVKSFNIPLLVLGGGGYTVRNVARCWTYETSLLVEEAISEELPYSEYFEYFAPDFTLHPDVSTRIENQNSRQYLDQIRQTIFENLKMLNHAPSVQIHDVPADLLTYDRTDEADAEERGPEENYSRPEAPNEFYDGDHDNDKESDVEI
Chain of Histone deacetylase 3/Nuclear receptor corepressor 2 (HDAC3/NCoR2) (Q9Y618 whole entry, further chain): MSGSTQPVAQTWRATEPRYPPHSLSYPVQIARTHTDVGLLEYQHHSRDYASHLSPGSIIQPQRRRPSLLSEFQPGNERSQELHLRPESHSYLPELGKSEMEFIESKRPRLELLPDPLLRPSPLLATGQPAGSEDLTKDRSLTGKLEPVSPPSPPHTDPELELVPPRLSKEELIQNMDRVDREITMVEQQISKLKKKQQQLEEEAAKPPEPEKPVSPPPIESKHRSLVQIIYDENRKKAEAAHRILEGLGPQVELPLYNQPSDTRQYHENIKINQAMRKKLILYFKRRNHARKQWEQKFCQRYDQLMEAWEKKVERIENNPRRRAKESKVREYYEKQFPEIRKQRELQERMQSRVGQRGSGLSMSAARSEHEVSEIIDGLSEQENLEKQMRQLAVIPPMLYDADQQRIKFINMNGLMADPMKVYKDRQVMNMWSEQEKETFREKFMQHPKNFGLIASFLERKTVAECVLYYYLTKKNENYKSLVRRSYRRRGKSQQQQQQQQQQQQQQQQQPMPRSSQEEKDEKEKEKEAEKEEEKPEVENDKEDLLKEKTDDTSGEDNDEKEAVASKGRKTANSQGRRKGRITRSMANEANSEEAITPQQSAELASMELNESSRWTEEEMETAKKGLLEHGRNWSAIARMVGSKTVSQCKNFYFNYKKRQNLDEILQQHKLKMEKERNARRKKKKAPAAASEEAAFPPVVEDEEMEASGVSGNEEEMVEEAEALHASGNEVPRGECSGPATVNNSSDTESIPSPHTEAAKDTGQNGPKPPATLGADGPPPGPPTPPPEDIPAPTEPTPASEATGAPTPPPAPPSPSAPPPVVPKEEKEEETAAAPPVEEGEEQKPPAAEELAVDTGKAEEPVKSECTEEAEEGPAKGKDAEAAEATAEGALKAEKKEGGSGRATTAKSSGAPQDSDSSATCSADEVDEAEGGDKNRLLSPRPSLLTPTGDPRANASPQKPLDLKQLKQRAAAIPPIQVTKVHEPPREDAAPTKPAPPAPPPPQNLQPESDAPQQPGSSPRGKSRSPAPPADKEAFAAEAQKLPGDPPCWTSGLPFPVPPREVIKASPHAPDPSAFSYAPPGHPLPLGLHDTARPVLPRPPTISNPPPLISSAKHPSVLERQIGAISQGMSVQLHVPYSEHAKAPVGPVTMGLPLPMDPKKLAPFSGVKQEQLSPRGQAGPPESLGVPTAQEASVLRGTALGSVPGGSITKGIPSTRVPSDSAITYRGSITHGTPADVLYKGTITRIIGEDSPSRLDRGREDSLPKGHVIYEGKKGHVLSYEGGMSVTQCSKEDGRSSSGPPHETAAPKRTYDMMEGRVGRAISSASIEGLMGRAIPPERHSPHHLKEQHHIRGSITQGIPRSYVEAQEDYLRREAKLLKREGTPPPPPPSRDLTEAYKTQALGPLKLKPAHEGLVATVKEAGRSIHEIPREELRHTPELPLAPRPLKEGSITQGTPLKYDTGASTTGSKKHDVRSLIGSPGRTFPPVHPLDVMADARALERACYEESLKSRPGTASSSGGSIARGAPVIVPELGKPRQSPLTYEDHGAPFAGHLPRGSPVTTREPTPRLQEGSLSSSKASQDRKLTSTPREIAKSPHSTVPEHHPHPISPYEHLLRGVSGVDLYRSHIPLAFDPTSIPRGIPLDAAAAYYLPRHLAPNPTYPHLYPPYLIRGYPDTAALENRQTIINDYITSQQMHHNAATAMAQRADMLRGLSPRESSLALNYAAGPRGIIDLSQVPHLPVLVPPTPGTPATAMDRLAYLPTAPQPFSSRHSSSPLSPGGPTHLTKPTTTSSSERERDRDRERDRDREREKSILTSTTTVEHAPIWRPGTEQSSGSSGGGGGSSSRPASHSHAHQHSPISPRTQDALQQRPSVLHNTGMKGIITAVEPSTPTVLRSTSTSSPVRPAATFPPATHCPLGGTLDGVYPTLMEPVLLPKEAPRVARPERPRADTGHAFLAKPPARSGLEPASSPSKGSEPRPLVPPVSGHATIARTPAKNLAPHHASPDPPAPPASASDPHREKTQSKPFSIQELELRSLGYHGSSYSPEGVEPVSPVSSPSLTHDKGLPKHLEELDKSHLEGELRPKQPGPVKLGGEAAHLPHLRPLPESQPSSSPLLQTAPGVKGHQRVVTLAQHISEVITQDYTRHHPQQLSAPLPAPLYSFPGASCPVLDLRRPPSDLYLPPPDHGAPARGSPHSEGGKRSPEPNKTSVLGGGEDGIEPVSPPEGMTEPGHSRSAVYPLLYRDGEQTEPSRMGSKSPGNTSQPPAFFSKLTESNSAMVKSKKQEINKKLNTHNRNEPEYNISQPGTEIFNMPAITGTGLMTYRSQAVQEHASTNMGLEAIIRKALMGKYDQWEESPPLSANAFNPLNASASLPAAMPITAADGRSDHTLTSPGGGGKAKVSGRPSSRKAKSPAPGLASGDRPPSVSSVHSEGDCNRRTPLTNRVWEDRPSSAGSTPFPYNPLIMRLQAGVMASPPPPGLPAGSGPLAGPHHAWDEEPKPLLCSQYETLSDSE
Description: Inhibition of human recombinant full length C-terminal His-tagged HDAC3 (1 to 428 residues)/N-terminal GST-tagged NCOR2 (395 to 489 residues) expressed in baculovirus infected Sf9 insect cells using Boc-Lys(epsilon-acetyl)-AMC as substrate incubated for 90 mins by fluorescence assay

[10] = biological target: T1, Class 1 histone deacetylase; conditions: CAL-27
Description: Inhibition of class 1 HDAC in human CAL27 cells assessed as potentiation of cisplatin-induced cytotoxicity by measuring combination index at 0.5 uM in presence of 1 uM cisplatin by MTT assay based Chou-Talalay analysis

[11] = biological target: T1, Class 1 histone deacetylase; remark: listed apart in the source
Description: Inhibition of class 1 HDAC in human Cal27CisR cells assessed as potentiation of cisplatin-induced cytotoxicity by measuring combination index at 0.5 uM in presence of 3.2 uM cisplatin by MTT assay based Chou-Talalay analysis

Structure (SMILES)	CI [1]	CI [2]	pIC50 [3]	pIC50 (CAL-27)	pIC50 (Histone deacetylase 4)	IC50 (Histone deacetylase [4]) [µM]	pIC50 (Histone deacetylase 8)	CI [5]	IC50 (Histone deacetylase [6]) [µM]	pIC50 (Histone deacetylase 1)	CI [7]	CI [8]	pIC50 [9]	CI [10]	CI [11]
Cc1cc(C)cc(C(=O)N(CCCCCC(=O)Nc2cc(-c3ccccc3)ccc2N)CC(=O)NCc2ccccc2)c1	< 0.2	< 0.2	< 5.00	4.72	< 5.00	0.47	< 5.00	< 0.2	1.43	7.24	< 0.2				
CN(C)c1ccc(C(=O)N(CC(=O)NCc2ccccc2)Cc2ccc(C(=O)Nc3ccccc3N)cc2)cc1			< 5.00	5.80	< 5.00	0.11	5.04		0.48	7.42		0.03	6.23	0.16	0.25
Cc1cc(C)cc(C(=O)N(CC(=O)NCc2ccccc2)Cc2ccc(C(=O)Nc3cc(-c4ccccc4)ccc3N)cc2)c1	0.31	0.81	< 5.00	5.05	< 5.00	0.63	5.50	0.23	1.72	7.29	0.46	< 0.2	< 5.00	0.59	< 0.2
